Assay [1] has as its system dsDNA (DNA, duplex) CGCGGCGTACAGTGATCTACCATGCCCTGG/CCAGGGCATGGTAGATCACTGTACGCCGCG
Description: fluorescence titration, modified McGhee-von Hippel fit. Conditions: Na+ (10 mM sodium phosphate), pH 7.0, dye 2 μM, DNA in bp, per base.

The test system of assay [2] is d(GC)10 (DNA, duplex) GCGCGCGCGCGCGCGCGCGC
Description: fluorescent indicator displacement. Conditions: Na+ (10 mM sodium phosphate); pH 7.0, 25 °C; EtBr displaced; DNA 20 μM bp; dye 0.5–50 μM.

Assay [3] has as its system d(AT)10 (DNA, duplex) ATATATATATATATATATAT
In words: fluorescent indicator displacement. Conditions: Na+ (10 mM sodium phosphate); pH 7.0, 25 °C; DAPI displaced; DNA 20 μM bp; dye 0.5–50 μM.

In assay [4] the test system is dsDNA (DNA, duplex) CGCGGCGTACAGTGATCTACCATGCCCTGG/CCAGGGCATGGTAGATCACTGTACGCCGCG
In words: fluorescence enhancement. The settings on record: Na+ (10 mM sodium phosphate), pH 7.0, 25 °C, dye 2 μM, DNA 1 μM.

Turning to `CCN(CC)c1ccc(/C=C/c2cc[n+](C)c3ccccc23)c(OCCCC[N+](C)(C)C)c1`, the Kb in assay [1] (n = 2.1 bp per dye) was 245000 M⁻¹. Further, the binding result in assay [2] and in assay [3] was “yes” each time.

In turn, `CCN(CC)c1ccc(/C=C/c2cc[n+](C)c3ccccc23)cc1` showed a Kb in assay [1] (n = 2.8 bp per dye) of 70000 M⁻¹. The binding result in assay [2] and in assay [3] was “yes” throughout.

Turning to `CCN(CC)c1ccc(/C=C/c2cc[n+](C)cc2)c(OCCCC[N+](C)(C)C)c1`, the Kb in assay [1] (n = 4.0 bp per dye) was found to be 141000 M⁻¹. Also, in assay [3], the binding result is listed as “yes”.

On to `CCN(CC)c1ccc(/C=C/c2cc[n+](C)cc2)c(OCCC[N+](C)(C)C)c1`, for which, in assay [4] (F/F0 54.8), the binding entry is “yes”.

For the molecule `CCN(CC)c1ccc(/C=C/c2cc[n+](C)cc2)c(OCC[N+](C)(C)C)c1`, in assay [4] (F/F0 60.5), the binding entry was “yes”.

`CCN(CC)c1ccc(/C=C/c2cc[n+](C)cc2)cc1` registered a Kb in assay [1] (n = 4.4 bp per dye) of 10000 M⁻¹. Besides, the binding entry in assay [3] is given as “yes”.

Take `CCN(CC)c1ccc(/C=C/c2sc3ccccc3[n+]2C)c(OCCCC[N+](C)(C)C)c1`: in assay [1] (n = 2.5 bp per dye), the Kb came out at 121000 M⁻¹. Besides, the binding result in assay [2] and in assay [3] was “yes” in each case.

Turning to `CCN(CC)c1ccc(/C=C/c2sc3ccccc3[n+]2C)cc1`, in assay [1] (n = 2.5 bp per dye), the Kb was determined as 35000 M⁻¹. The binding entry in assay [2] and in assay [3] was “yes” in each case.

Turning to `COc1ccc(/C=C/c2sc3ccccc3[n+]2C)c(OCCCC[N+](C)(C)C)c1`, the binding result in assay [2], in assay [4] (F/F0 10.9) and in assay [3] was “yes” throughout.

These data come from article PMC9395382 (2022).
